In ChEMBL document CHEMBL5696442, “Discovery of type II inhibitors of TGFβ-activated kinase 1 (TAK1) and mitogen-activated protein kinase kinase kinase kinase 2 (MAP4K2)” (J Med Chem, 2015):
The source made the active and inactive calls. No cut-off for these calls is given here.

Columns and labels:
[1] = biological target: T1, EKC/KEOPS complex subunit TP53RK (Homo sapiens) (UniProt Q96S44); experiment: Inhibition of PRPK ATP labeling site in human Huh-7 cell lysate at 1 uM by KiNativ Profiling analysis relative to control; type: subcellular
T1 sequence (whole entry): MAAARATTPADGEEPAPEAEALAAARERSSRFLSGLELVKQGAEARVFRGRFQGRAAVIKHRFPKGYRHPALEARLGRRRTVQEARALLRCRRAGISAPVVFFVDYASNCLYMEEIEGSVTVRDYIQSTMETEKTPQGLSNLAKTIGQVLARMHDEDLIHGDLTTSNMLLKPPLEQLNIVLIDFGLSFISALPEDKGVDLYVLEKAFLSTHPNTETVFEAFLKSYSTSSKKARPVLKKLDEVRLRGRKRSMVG

[2] = biological target: Serine/threonine-protein kinase 26 (Homo sapiens) (UniProt Q9P289); experiment: Inhibition of MST4 Lys2 labeling site in human Huh-7 cell lysate at 1 uM by KiNativ Profiling analysis relative to control; type: subcellular
Serine/threonine-protein kinase 26 (Homo sapiens), sequence (Q9P289 2-416 limits assumed): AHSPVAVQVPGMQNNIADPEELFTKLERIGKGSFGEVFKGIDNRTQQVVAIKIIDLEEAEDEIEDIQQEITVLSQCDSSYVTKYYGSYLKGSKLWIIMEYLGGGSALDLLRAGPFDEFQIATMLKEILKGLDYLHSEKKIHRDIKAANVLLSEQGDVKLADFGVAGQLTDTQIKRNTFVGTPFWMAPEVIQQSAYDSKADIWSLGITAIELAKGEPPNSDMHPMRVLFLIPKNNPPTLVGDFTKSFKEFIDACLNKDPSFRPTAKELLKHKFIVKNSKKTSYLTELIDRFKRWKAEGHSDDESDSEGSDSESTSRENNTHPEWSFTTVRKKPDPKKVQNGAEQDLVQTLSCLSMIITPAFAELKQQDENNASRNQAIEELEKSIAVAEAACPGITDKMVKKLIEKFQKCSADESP

[3] = biological target: Ribosomal protein S6 kinase alpha-3 (Homo sapiens) (UniProt P51812); experiment: Inhibition of RSK2 domain1 ATP labeling site in human Huh-7 cell lysate at 1 uM by KiNativ Profiling analysis relative to control; type: subcellular
[4] = biological target: Ephrin type-B receptor 1 (Homo sapiens) (UniProt P54762); experiment: Inhibition of EPHB1 (unknown origin) at 10 uM by Ambit Kinomescan binding assay
Ephrin type-B receptor 1 (Homo sapiens), sequence (P54762 whole entry): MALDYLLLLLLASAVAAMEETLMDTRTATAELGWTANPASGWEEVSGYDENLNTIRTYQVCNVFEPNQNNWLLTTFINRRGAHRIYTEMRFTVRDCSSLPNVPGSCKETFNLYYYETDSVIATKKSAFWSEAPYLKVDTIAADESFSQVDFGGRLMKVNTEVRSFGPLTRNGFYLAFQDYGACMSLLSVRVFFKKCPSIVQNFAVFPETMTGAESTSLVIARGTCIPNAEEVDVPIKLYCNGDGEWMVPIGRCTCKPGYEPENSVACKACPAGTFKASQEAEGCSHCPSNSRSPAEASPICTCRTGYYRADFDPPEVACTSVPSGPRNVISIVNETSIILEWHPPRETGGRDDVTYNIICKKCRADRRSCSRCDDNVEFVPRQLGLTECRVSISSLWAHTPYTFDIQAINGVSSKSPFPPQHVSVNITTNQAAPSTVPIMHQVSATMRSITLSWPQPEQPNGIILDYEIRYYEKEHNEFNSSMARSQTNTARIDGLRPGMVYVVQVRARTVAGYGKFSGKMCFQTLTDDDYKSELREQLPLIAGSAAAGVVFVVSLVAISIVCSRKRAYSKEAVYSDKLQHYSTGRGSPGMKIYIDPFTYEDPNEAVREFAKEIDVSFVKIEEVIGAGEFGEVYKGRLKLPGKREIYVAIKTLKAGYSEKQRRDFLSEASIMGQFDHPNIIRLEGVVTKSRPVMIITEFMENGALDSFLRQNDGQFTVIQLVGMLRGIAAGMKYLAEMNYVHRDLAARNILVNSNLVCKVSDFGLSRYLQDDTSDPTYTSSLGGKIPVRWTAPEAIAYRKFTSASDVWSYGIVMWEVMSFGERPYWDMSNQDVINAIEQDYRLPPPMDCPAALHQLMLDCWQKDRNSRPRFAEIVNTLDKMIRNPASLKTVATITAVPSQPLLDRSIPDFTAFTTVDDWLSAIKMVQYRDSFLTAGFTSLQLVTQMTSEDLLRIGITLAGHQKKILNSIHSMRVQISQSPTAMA

[5] = biological target: Tyrosine-protein kinase receptor TYRO3 (Homo sapiens) (UniProt Q06418); experiment: Inhibition of TYRO3 (unknown origin) at 10 uM by Ambit Kinomescan binding assay
[6] = biological target: Tyrosine-protein kinase Fer (Homo sapiens, UniProt P16591); experiment: Inhibition of FER K1 labeling site in human Huh-7 cells at 10 uM by KiNativ Profiling analysis relative to control; type: cell-based
Tyrosine-protein kinase Fer, sequence (P16591 whole entry, looked up): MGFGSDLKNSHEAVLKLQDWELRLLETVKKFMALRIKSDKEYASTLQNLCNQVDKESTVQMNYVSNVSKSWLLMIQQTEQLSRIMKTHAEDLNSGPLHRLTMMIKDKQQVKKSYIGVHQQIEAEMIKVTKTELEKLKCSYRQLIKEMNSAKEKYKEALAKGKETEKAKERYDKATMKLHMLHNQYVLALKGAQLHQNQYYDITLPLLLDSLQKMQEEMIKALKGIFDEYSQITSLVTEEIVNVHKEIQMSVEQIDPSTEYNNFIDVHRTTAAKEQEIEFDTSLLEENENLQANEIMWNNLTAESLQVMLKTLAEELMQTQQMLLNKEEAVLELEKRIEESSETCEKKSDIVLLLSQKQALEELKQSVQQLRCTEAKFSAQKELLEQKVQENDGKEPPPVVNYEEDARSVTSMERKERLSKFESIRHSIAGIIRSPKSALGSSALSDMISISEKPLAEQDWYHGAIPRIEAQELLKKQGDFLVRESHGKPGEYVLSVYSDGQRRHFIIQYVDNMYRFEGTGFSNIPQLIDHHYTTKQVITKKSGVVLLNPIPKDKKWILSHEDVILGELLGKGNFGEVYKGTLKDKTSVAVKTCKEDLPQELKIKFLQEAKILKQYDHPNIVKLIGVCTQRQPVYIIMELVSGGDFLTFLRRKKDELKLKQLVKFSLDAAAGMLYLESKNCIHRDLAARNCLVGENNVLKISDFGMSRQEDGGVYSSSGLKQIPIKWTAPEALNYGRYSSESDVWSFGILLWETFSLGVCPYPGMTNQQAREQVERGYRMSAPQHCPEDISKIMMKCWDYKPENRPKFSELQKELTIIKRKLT

[7] = biological target: T2, Mitogen-activated protein kinase kinase kinase 2 (Homo sapiens) (UniProt Q9Y2U5); experiment: Inhibition of MAP3K2 K1 labeling site in human Huh-7 cells at 10 uM by KiNativ Profiling analysis relative to control; type: cell-based
T2 sequence (whole entry): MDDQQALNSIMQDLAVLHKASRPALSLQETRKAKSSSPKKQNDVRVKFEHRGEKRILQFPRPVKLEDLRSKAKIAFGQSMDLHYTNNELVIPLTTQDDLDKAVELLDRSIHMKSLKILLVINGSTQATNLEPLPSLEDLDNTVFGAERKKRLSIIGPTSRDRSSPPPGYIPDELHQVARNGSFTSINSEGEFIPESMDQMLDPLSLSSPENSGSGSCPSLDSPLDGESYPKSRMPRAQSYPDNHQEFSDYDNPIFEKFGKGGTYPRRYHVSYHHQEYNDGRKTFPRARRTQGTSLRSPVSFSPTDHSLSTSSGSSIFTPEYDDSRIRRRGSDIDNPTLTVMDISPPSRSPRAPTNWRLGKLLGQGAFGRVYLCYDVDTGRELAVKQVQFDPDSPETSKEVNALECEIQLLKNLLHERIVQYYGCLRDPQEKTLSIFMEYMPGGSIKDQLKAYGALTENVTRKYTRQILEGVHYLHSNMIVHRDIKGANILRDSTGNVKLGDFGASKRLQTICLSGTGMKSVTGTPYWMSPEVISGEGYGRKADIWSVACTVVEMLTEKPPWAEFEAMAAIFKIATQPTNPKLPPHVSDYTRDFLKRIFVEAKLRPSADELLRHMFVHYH

[8] = tested on: Proto-oncogene tyrosine-protein kinase receptor Ret (Homo sapiens), P07949 [V804L]; experiment: Inhibition of RET V804L mutant (unknown origin) at 10 uM by Ambit Kinomescan binding assay relative to control; values are per cent of control
Proto-oncogene tyrosine-protein kinase receptor Ret (Homo sapiens), P07949 [V804L], sequence (P07949 whole entry V804L): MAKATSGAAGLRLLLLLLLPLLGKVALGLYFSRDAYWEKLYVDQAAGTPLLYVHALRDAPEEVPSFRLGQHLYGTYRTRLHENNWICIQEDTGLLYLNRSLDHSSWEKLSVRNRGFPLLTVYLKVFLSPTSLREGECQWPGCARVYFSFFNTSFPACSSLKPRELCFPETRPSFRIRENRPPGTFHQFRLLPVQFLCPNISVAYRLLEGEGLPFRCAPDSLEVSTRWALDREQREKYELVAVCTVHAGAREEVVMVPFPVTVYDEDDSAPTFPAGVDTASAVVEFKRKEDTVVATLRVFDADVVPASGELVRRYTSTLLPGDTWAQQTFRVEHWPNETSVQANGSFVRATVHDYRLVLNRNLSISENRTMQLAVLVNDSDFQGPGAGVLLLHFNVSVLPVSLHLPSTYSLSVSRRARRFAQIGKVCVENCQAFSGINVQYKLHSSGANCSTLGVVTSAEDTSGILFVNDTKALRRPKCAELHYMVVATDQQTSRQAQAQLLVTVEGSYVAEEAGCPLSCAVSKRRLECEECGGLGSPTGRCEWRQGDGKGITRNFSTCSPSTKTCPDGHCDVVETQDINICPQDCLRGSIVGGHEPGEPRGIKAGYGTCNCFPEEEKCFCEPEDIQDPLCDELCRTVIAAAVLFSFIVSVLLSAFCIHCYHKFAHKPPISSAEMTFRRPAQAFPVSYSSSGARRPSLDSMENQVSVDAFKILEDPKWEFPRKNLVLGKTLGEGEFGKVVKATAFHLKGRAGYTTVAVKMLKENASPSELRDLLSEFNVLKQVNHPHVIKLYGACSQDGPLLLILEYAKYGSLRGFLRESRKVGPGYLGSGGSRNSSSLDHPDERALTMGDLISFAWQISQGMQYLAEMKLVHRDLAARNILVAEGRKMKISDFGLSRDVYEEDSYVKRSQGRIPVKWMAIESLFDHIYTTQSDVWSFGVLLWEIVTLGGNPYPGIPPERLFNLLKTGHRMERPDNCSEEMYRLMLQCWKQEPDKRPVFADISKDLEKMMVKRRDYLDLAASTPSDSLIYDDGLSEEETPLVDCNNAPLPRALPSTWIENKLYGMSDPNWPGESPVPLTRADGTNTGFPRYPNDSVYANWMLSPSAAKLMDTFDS

[9] = biological target: Misshapen-like kinase 1 (Homo sapiens) (UniProt Q8N4C8); experiment: Inhibition of ZC3/MINK Lys2 labeling site in human A-375 cells at 5 uM by KiNativ Profiling analysis relative to control; type: cell-based
[10] = biological target: Myosin light chain kinase, smooth muscle (Homo sapiens) (UniProt Q15746); experiment: Inhibition of MYLK (unknown origin) at 1 uM by Ambit Kinomescan binding assay relative to control; values are per cent of control
[11] = biological target: Serine/threonine-protein kinase PAK 1 (Homo sapiens) (UniProt Q13153); experiment: Inhibition of PAK1 (unknown origin) at 1 uM by Ambit Kinomescan binding assay relative to control; values are per cent of control
Serine/threonine-protein kinase PAK 1 (Homo sapiens), sequence (Q13153 whole entry, looked up): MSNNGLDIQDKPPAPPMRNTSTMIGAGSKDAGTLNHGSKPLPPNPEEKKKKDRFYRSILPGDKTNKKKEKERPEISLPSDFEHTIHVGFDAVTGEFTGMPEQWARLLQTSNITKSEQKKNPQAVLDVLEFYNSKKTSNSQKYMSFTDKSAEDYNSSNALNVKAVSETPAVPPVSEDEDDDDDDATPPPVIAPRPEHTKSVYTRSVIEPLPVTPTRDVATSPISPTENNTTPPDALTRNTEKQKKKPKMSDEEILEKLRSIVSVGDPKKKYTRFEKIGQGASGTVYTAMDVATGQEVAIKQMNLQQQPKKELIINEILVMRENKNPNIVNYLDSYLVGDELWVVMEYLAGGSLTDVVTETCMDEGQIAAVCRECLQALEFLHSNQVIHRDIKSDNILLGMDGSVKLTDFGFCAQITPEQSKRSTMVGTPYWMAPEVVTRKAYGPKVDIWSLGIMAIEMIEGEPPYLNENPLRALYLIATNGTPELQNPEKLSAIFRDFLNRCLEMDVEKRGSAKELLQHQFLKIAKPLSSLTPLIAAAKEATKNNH

[12] = biological target: Mitogen-activated protein kinase kinase kinase kinase 4 (Homo sapiens, UniProt O95819); experiment: Inhibition of MAP4K4 (unknown origin) at 1 uM by Ambit Kinomescan binding assay relative to control
[13] = biological target: SRSF protein kinase 1 (Homo sapiens) (UniProt Q96SB4); experiment: Inhibition of SRPK1 (unknown origin) at 1 uM by Ambit Kinomescan binding assay relative to control
SRSF protein kinase 1 (Homo sapiens), sequence (Q96SB4 whole entry): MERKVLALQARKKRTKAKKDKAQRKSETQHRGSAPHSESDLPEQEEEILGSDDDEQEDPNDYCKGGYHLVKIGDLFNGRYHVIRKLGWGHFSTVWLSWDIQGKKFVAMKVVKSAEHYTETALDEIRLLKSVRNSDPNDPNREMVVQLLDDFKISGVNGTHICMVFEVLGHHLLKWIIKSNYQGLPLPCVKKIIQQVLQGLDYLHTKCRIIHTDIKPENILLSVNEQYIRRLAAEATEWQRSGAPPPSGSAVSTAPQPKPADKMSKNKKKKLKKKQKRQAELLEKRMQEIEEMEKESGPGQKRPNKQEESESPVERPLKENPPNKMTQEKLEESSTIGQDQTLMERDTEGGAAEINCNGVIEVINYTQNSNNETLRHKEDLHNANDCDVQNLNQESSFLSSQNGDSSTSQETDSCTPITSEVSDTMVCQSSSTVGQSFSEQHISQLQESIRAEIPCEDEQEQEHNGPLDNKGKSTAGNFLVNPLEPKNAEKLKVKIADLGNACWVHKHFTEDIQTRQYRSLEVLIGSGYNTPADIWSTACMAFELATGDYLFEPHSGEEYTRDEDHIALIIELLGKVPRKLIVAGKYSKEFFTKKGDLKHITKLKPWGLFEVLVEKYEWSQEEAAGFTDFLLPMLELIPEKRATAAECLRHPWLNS

[14] = biological target: T3, NUAK family SNF1-like kinase 2 (Homo sapiens) (UniProt Q9H093); experiment: Inhibition of NuaK2 Lys1 labeling site in human A-375 cells at 5 uM by KiNativ Profiling analysis relative to control; type: cell-based
T3 sequence (whole entry): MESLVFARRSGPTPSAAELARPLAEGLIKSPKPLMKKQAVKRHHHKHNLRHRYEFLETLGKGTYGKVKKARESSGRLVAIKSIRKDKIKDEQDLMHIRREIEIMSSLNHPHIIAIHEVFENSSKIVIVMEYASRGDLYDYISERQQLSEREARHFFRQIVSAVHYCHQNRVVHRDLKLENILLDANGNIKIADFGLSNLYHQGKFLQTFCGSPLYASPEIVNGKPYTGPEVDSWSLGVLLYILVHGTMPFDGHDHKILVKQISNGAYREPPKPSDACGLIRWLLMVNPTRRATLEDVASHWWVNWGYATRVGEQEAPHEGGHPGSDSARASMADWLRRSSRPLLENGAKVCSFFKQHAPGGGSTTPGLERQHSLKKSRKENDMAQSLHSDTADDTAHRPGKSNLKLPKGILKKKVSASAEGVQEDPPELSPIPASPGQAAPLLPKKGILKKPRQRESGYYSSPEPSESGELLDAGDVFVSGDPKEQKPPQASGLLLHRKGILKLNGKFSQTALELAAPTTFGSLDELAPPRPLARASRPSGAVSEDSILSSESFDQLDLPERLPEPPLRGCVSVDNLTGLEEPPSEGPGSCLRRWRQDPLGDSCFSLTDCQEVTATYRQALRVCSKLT

[15] = biological target: Protein kinase C epsilon type (Homo sapiens) (UniProt Q02156); experiment: Inhibition of PRKCE (unknown origin) at 1 uM by Ambit Kinomescan binding assay relative to control; values are per cent of control
[16] = biological target: Ephrin type-A receptor 8 (Homo sapiens) (UniProt P29322); experiment: Inhibition of EPHA8 (unknown origin) at 1 uM by Ambit Kinomescan binding assay relative to control; values are per cent of control

In the case of `CNc1cc(Oc2cc(C(=O)Nc3cc(N4CCN(C)CC4)cc(C(F)(F)F)c3)ccc2C)ncn1`, the inhibition [1] is reported as -6%, the inhibition [2] is reported as -0.3% and the inhibition [3] is reported as -2.6%.
In the case of `CCN1CCN(Cc2ccc(NC(=O)c3ccc(C)c(Oc4ccnc5[nH]ccc45)c3)cc2C(F)(F)F)CC1`, the inhibition [4] is reported as “inactive”, the inhibition [5] is reported as “inactive” and the inhibition [6] is reported as 83.3%. The inhibition [7] was 31.6%, the residual activity [8] was 0.8% and the inhibition [9] was 92.7%.
`CCN1CCN(Cc2ccc(NC(=O)c3ccc(C)c(/C=C/c4cnc5[nH]ccc5c4OC)c3)cc2C(F)(F)F)CC1` showed a residual activity [10] of 81%, a residual activity [11] of 100% and an inhibition [12] of 1.8%. The inhibition [13] was 28%, the inhibition [14] was -6.1% and the residual activity [15] was 62%. For the same compound, the residual activity [16] was 0.35%.
